Assay results from ChEMBL document CHEMBL4251633, “Design, synthesis, biological evaluation and cocrystal structures with tubulin of chiral β-lactam bridged combretastatin A-4 analogues as potent antitumor agents” (Eur J Med Chem, 2018).
Activity calls are given as the source filed them. The calls are words filed in the database; no cut-off is given here.

Experiments:
[1] = system: MDA-MB-231; assay: Antiproliferative activity against human MDA-MB-231 cells after 48 hrs by MTT assay; assay type: functional, cell-based; conditions: MDA-MB-231, 48 h
[2] = system: SK-OV-3; assay: Antiproliferative activity against human SKOV3 cells after 48 hrs by MTT assay; conditions: SK-OV-3, 48 h
[3] = system: HeLa; assay: Antiproliferative activity against human HeLa cells after 48 hrs by MTT assay; assay type: functional, cell-based
[4] = system: A2780; assay: cells; conditions: Homo sapiens, A2780, 48 h
Description: Antiproliferative activity against human A2780 cells after 48 hrs by MTT assay

[5] = system: HeLa; assay: Inhibition of alpha-tubulin polymerization in human HeLa cells assessed as increase in ratio of supernatant faction to pellet fraction at 500 nM after 6 hrs by Western blot analysis; assay type: cell-based
[6] = species on record: Homo sapiens; assay: Disruption of microtubule structure in human SKOV3 cells assessed as decrease in density at 50 nM after 24 hrs by DAPI staining based immunofluorescence assay; assay type: cell-based
[7] = system: HeLa; assay: Cell cycle arrest in human HeLa cells assessed as accumulation at G2/M-phase at 50 nM after 24 hrs by propidium iodide staining based flow cytometry; assay type: functional
[8] = system: HeLa; assay: Induction of apoptosis in human HeLa cells assessed as live cells at 100 nM after 48 hrs by Annexin V-FITC/propidium iodide staining based flow cytometry (reference value: 96.5%); assay type: functional
[9] = system: HeLa; assay: Induction of apoptosis in human HeLa cells assessed as early apoptotic cells at 100 nM after 48 hrs by Annexin V-FITC/propidium iodide staining based flow cytometry (reference value: 0.7%); assay type: functional
[10] = system: HeLa; assay: Induction of apoptosis in human HeLa cells assessed as late apoptotic cells at 100 nM after 48 hrs by Annexin V-FITC/propidium iodide staining based flow cytometry (reference value: 2%); assay type: functional
[11] = system: HeLa; assay: Induction of apoptosis in human HeLa cells assessed as necrotic cells at 100 nM after 48 hrs by Annexin V-FITC/propidium iodide staining based flow cytometry (reference value: 0.9%); assay type: functional

| SMILES | IC50 [1] [nM] | IC50 [2] [nM] | IC50 [3] [nM] | IC50 [4] [nM] | tubulin polymerization inhibition (active/inactive) [5] | Activity [6] | Activity [7] [%] | Activity [8] [%] | Activity [9] [%] | Activity [10] [%] | Activity [11] [%] |
| --- | --- | --- | --- | --- | --- | --- | --- | --- | --- | --- | --- |
| COc1ccc([C@H]2/C(=C/c3ccc(C(C)(C)C)cc3)C(=O)N2c2cc(OC)c(OC)c(OC)c2)cc1O | > 20000 | > 20000 | > 20000 | > 20000 | – | – | – | – | – | – | – |
| C=C1C(=O)N(c2cc(OC)c(OC)c(OC)c2)[C@H]1c1ccc(OC)c(OC(C)C)c1 | 15900 | 18000 | > 20000 | 11300 | – | – | – | – | – | – | – |
| COc1ccc([C@H]2[C@H](NS(C)(=O)=O)C(=O)N2c2cc(OC)c(OC)c(OC)c2)cc1O | 254 | 231 | 192 | 164 | – | – | – | – | – | – | – |
| C=C1C(=O)N(c2cc(OC)c(OC)c(OC)c2)[C@H]1c1ccc(OC)c(Cl)c1 | 512 | 341 | 371 | 316 | – | – | – | – | – | – | – |
| C=C1C(=O)N(c2cc(OC)c(OC)c(OC)c2)[C@H]1c1ccc(OC)c(F)c1 | 112 | 136 | 131 | 121 | – | – | – | – | – | – | – |
| COc1ccc([C@H]2[C@H](NC(C)=O)C(=O)N2c2cc(OC)c(OC)c(OC)c2)cc1O | 47 | 32 | 35 | 33 | – | – | – | – | – | – | – |
| COc1ccc([C@H]2[C@H](C)C(=O)N2c2cc(OC)c(OC)c(OC)c2)cc1N | 17 | 8 | 35 | 21 | – | – | – | – | – | – | – |
| COc1ccc([C@H]2[C@@H](C)C(=O)N2c2cc(OC)c(OC)c(OC)c2)cc1O | 31 to 63 | 31 to 63 | 31 to 63 | 31 to 63 | – | – | – | – | – | – | – |
| COc1ccc([C@@H]2CC(=O)N2c2cc(OC)c(OC)c(OC)c2)cc1O | 28 | 24 | 30 | 22 | – | – | – | – | – | – | – |
| C=C1C(=O)N(c2cc(OC)c(OC)c(OC)c2)[C@H]1c1cccc(O)c1 | 6640 | 14500 | 15000 | 10500 | – | – | – | – | – | – | – |
| COc1ccc([C@H]2/C(=C/c3ccccc3)C(=O)N2c2cc(OC)c(OC)c(OC)c2)cc1O | 3160 | 2990 | 4730 | 2540 | – | – | – | – | – | – | – |
| C=C1C(=O)N(c2cc(OC)c(OC)c(OC)c2)[C@H]1c1ccc(OC)c(OCC)c1 | 958 | 1140 | 2030 | 854 | – | – | – | – | – | – | – |
| C=C1C(=O)N(c2ccccc2)[C@H]1c1ccccc1 | > 20000 | > 20000 | > 20000 | > 20000 | – | – | – | – | – | – | – |
| COc1ccc([C@H]2[C@H](Br)C(=O)N2c2cc(OC)c(OC)c(OC)c2)cc1O | 10 | 9 | 13 | 8 | – | – | – | – | – | – | – |
| COc1ccc([C@H]2[C@@H](C)C(=O)N2c2cc(OC)c(OC)c(OC)c2)cc1N | 63 | 59 | 215 | 81 | – | – | – | – | – | – | – |
| COc1ccc([C@H]2[C@@H](CO)C(=O)N2c2cc(OC)c(OC)c(OC)c2)cc1N | 107 | 54 | 328 | 327 | – | – | – | – | – | – | – |
| COc1ccc([C@@H]2[C@@H](C)C(=O)N2c2cc(OC)c(OC)c(OC)c2)cc1O | 1080 | 650 | 807 | 771 | – | – | – | – | – | – | – |
| C=C1C(=O)N(c2cc(OC)c(OC)c(OC)c2)[C@H]1c1ccc(OC)c(OCc2ccccc2)c1 | > 20000 | > 20000 | > 20000 | > 20000 | – | – | – | – | – | – | – |
| C=C1C(=O)N(c2cc(OC)c(OC)c(OC)c2)[C@H]1c1ccc(OC)c(N)c1 | 40 | 36 | 32 | 31 | – | – | – | – | – | – | – |
| C=C1C(=O)N(c2cc(OC)c(OC)c(OC)c2)[C@H]1c1ccccc1 | > 20000 | > 20000 | > 20000 | > 20000 | – | – | – | – | – | – | – |
| C=C1C(=O)N(c2cc(OC)c(OC)c(OC)c2)[C@H]1c1ccc(OC)cc1 | > 20000 | > 20000 | > 20000 | > 20000 | – | – | – | – | – | – | – |

| SMILES | IC50 [1] [nM] | IC50 [2] [nM] | IC50 [3] [nM] | IC50 [4] [nM] | tubulin polymerization inhibition (active/inactive) [5] | Activity [6] | Activity [7] [%] | Activity [8] [%] | Activity [9] [%] | Activity [10] [%] | Activity [11] [%] |
| --- | --- | --- | --- | --- | --- | --- | --- | --- | --- | --- | --- |
| COc1ccc([C@H]2[C@@H](OC)C(=O)N2c2cc(OC)c(OC)c(OC)c2)cc1O | 1960 | 2210 | 1790 | 1220 | – | – | – | – | – | – | – |
| COc1ccc([C@H]2[C@H](n3cc(CO)nn3)C(=O)N2c2cc(OC)c(OC)c(OC)c2)cc1O | 28 | 83 | 33 | 15 | – | – | – | – | – | – | – |
| C=C1C(=O)N(c2cccc(OC)c2)[C@H]1c1ccc(OC)c(O)c1 | 1370 | 1390 | 2170 | 677 | – | – | – | – | – | – | – |
| C=C1C(=O)N(c2cc(OC)c(OC)c(OC)c2)[C@H]1c1cc(OC)c(OC)c(OC)c1 | 784 | 365 | 547 | 215 | – | – | – | – | – | – | – |
| COC[C@@]1(OC)C(=O)N(c2cc(OC)c(OC)c(OC)c2)[C@H]1c1ccc(OC)c(O)c1 | > 20000 | > 20000 | > 20000 | 17700 | – | – | – | – | – | – | – |
| C=CC(=O)Nc1cc([C@H]2C(=C)C(=O)N2c2cc(OC)c(OC)c(OC)c2)ccc1OC | 34 | 63 | 125 | 65 | – | – | – | – | – | – | – |
| C=C1C(=O)N(c2cc(OC)c(OC)c(OC)c2)[C@H]1c1ccc(OC)c(O[Si](C)(C)C(C)(C)C)c1 | 560 | 414 | 657 | 287 | – | – | – | – | – | – | – |
| C=C1C(=O)N(c2cc(OC)c(OC)c(OC)c2)[C@H]1c1ccc(OC)c(OC(C)=O)c1 | 133 | 104 | 116 | 81 | – | – | – | – | – | – | – |
| COc1ccc([C@H]2[C@@H](OC(=O)CCC(=O)O)C(=O)N2c2cc(OC)c(OC)c(OC)c2)cc1O | 102 | 210 | 178 | 79 | – | – | – | – | – | – | – |
| CC(=O)O[C@H]1C(=O)[C@@]2(C)[C@H]([C@H](OC(=O)c3ccccc3)[C@]3(O)C[C@H](OC(=O)[C@H](O)[C@@H](NC(=O)c4ccccc4)c4ccccc4)C(C)=C1C3(C)C)[C@]1(OC(C)=O)CO[C@@H]1C[C@@H]2O | – | – | – | – | inactive | inactive | – | – | – | – | – |
| C=C1C(=O)N(c2cc(OC)c(OC)c(OC)c2)[C@H]1c1ccc(C)cc1 | 193 | 265 | 209 | 127 | – | – | – | – | – | – | – |
| COc1ccc([C@H]2[C@H](CO)C(=O)N2c2cc(OC)c(OC)c(OC)c2)cc1N | 27 | 8 | 44 | 35 | – | – | – | – | – | – | – |
| C=C1C(=O)N(c2ccc(OC)cc2)[C@H]1c1ccc(OC)c(O)c1 | > 20000 | > 20000 | > 20000 | > 20000 | – | – | – | – | – | – | – |
| C=C1C(=O)N(c2cc(OC)c(OC)c(OC)c2)[C@H]1c1ccc(OC)c(OS(=O)(=O)c2ccc(C)cc2)c1 | 12800 | 12100 | 17800 | > 20000 | – | – | – | – | – | – | – |
| COc1ccc([C@H]2[C@H](NC(=O)c3ccccc3)C(=O)N2c2cc(OC)c(OC)c(OC)c2)cc1O | 47 | 45 | 24 | 27 | – | – | – | – | – | – | – |
| COc1ccc([C@@H]2[C@H](C)C(=O)N2c2cc(OC)c(OC)c(OC)c2)cc1O | 5140 | 3270 | 3920 | 5750 | – | – | – | – | – | – | – |
| C=C1C(=O)N(c2cc(OC)c(OC)c(OC)c2)[C@H]1c1ccc(OC)c(OCCC)c1 | 5620 | 5260 | 6890 | 3420 | – | – | – | – | – | – | – |
| C=C1C(=O)N(c2cc(OC)c(OC)c(OC)c2)[C@H]1c1ccc(OC)c(OC)c1 | 1020 | 2260 | 3160 | 854 | – | – | – | – | – | – | – |
| COc1ccc([C@@H]2N(c3cc(OC)c(OC)c(OC)c3)C(=O)[C@]2(O)CO)cc1O | 2320 | 2070 | 2100 | 1540 | – | – | – | – | – | – | – |
| COc1ccc(/C=C\c2cc(OC)c(OC)c(OC)c2)cc1O [COMBRETASTATIN A4] | – | – | – | – | Active | Active | 100 | 30 | 33.3 | 29.2 | 7.5 |
| C=C1C(=O)N(c2cc(OC)cc(OC)c2)[C@H]1c1ccc(OC)c(O)c1 | 125 | 175 | 295 | 112 | – | – | – | – | – | – | – |
